# Results taken from ChEMBL document CHEMBL5441381, “ASAP - In vitro antiviral effect” (2024).
# Values joined by “and” are separate entries in the source; they are usually repeats but may differ in a detail not shown here. Equal entries are not always repeated.
# What was measured:
# SARS-CoV-2 [1] = assay: (§1) Functional immunofluorescence assay to measure dose dependent changes in antiviral-drug inhibitory efficacy against hCoV-19/USA-WA1/2020 in HeLa-ACE2 cells which are seeded prior to drug treatment, then infected with hCoV-19/USA-WA1/2020. Cells are fixed with 10 % formaldehyde, washed with PBS, permeabilized with permeabilization buffer, then washed with wash buffer. The cells are incubated with nucleoprotein primary antibody IC7C7. Following primary staining, cells are washed with wash buffer and incubated in a solution of with Alexa fluor 488 and DAPI. Infected and uninfected cells are visualized and analyzed by Gen5 software. The assay has been performed by Icahn School of Medicine at Mount Sinai.; type: organism-based, Homo sapiens
# SARS-CoV-2 [2] = assay: as §1, with “iPSC-Pneumocyte” for “HeLa-ACE2”, “to” for “to drug”; type: organism-based, Homo sapiens; conditions: for EC90: Baseline response 0 %, Maximum response 100 %
# [3] = Severe acute respiratory syndrome coronavirus 2, HeLa-ACE2
structure (smiles),measurement,setting,value
CC(C)[C@@H](Nc1ncnc2[nH]c(-c3cnn(C)c3C#N)cc12)c1ccc2c(c1)OCCO2,EC90,"SARS-CoV-2 [1]; Baseline response 0 %, EC90 CI (lower) 0.491 uM, EC90 CI (upper) 1.004 uM, Hill slope -2.446, Maximum measured 109.522 %, Maximum response 100 %, Minimum measured 0 %, R squared 0.979",4.23 µM
same,EC50,SARS-CoV-2 [1]; [3],1.73 µM
same,EC90,"SARS-CoV-2 [1]; Severe acute respiratory syndrome coronavirus 2, HeLa-ACE2, Baseline response 0 %, EC90 CI (lower) 0.194 uM, EC90 CI (upper) 2.46 uM, Hill slope -2.403, Maximum measured 109.522 %, Maximum response 100 %, Minimum measured 3.811 %, R squared 0.7",4.31 µM
same,EC50,SARS-CoV-2 [1]; hela-ace2,1.72 µM
same,EC90,"SARS-CoV-2 [2]; Severe acute respiratory syndrome coronavirus 2, Pneumocyte, Hill slope -15.978, Maximum measured 108.15 %, Minimum measured 1.229 %, R squared 0.666",16.2 µM
same,EC90,"SARS-CoV-2 [2]; Severe acute respiratory syndrome coronavirus 2, Pneumocyte, EC90 CI (lower) 0 uM, EC90 CI (upper) 0 uM, Hill slope -11.115, Maximum measured 116.315 %, Minimum measured 8.563 %, R squared 0.796",6.57 µM
same,EC50,SARS-CoV-2 [2]; pneumocyte,14.1 µM and 5.39 µM
CC(C)[C@@H](Nc1ncnc2[nH]cc(C(=O)NC3CC3)c12)c1ccc2c(c1)S(=O)(=O)CCC2,EC50,SARS-CoV-2 [1]; [3],14.4 µM
same,EC90,"SARS-CoV-2 [1]; Severe acute respiratory syndrome coronavirus 2, HeLa-ACE2, Baseline response 0 %, Hill slope -1.207, Maximum measured 103.36 %, Maximum response 100 %, Minimum measured 37.723 %, R squared 0.64",> 20 µM
CC(C)[C@@H](Nc1ncnc2[nH]c(-c3ccc4nnn(C)c4c3)cc12)c1ccc2c(c1)S(=O)(=O)CCC2,EC50,SARS-CoV-2 [1]; [3],3.64 µM
same,EC90,"SARS-CoV-2 [1]; Severe acute respiratory syndrome coronavirus 2, HeLa-ACE2, Baseline response 0 %, Hill slope -0.69, Maximum measured 110.665 %, Maximum response 100 %, Minimum measured 33.895 %, R squared 0.849",> 20 µM
CC(C)[C@@H](Nc1ncnc2[nH]c(-c3cnn(CCC(N)=O)c3)cc12)c1ccc2c(c1)OCCO2,EC50,SARS-CoV-2 [1]; [3],> 20 µM
same,EC90,"SARS-CoV-2 [1]; Severe acute respiratory syndrome coronavirus 2, HeLa-ACE2, Maximum measured 112.19 %, Minimum measured 96.19 %",> 20 µM
same,EC90,"SARS-CoV-2 [1]; Severe acute respiratory syndrome coronavirus 2, HeLa-ACE2, Maximum measured 121.913 %, Minimum measured 97.771 %",> 20 µM
CC(C)[C@@H](Nc1ncnc2[nH]c(-c3ccc4cncn4c3)cc12)c1ccc2c(c1)S(=O)(=O)CCC2,EC50,SARS-CoV-2 [1]; [3],7.12 µM
same,EC90,"SARS-CoV-2 [1]; Severe acute respiratory syndrome coronavirus 2, HeLa-ACE2, Baseline response 0 %, Hill slope -0.819, Maximum measured 92.609 %, Maximum response 100 %, Minimum measured 28.375 %, R squared 0.905",> 20 µM
CC(C)[C@@H](Nc1ncnc2[nH]c(-c3cncc(S(C)(=O)=O)c3)cc12)c1ccc2c(c1)S(=O)(=O)CCC2,EC50,SARS-CoV-2 [1]; [3],> 20 µM
same,EC90,"SARS-CoV-2 [1]; Severe acute respiratory syndrome coronavirus 2, HeLa-ACE2, Maximum measured 119.816 %, Minimum measured 96.629 %",> 20 µM
CC(C)[C@@H](Nc1ncnc2[nH]c(-c3cnn(CC(N)=O)c3)cc12)c1ccc2c(c1)S(=O)(=O)CCC2,EC50,SARS-CoV-2 [1]; [3],> 20 µM
same,EC90,"SARS-CoV-2 [1]; Severe acute respiratory syndrome coronavirus 2, HeLa-ACE2, Maximum measured 127.59 %, Minimum measured 107.301 %",> 20 µM
CNC(=O)c1cc2c(N[C@@H](c3ccc4c(c3)S(=O)(=O)CCC4)C(C)C)ncnc2[nH]1,EC50,SARS-CoV-2 [1]; [3],> 20 µM
same,EC90,"SARS-CoV-2 [1]; Severe acute respiratory syndrome coronavirus 2, HeLa-ACE2, Maximum measured 104.869 %, Minimum measured 90.681 %",> 20 µM
CNC(=O)c1cccc(-c2cc3c(N[C@H](c4ccc5c(c4)S(=O)(=O)CCC5)C(C)C)ncnc3[nH]2)c1,EC50,SARS-CoV-2 [1]; [3],> 20 µM
same,EC90,"SARS-CoV-2 [1]; Severe acute respiratory syndrome coronavirus 2, HeLa-ACE2, Baseline response 0 %, Hill slope -6.666, Maximum measured 112.086 %, Maximum response 100 %, Minimum measured 84.591 %, R squared 0.065",> 20 µM
CC(C)[C@@H](Nc1ncnc2[nH]c(-c3cnn(CC(=O)N(C)C)c3)cc12)c1ccc2c(c1)OCCO2,EC50,SARS-CoV-2 [1]; [3],> 20 µM
same,EC90,"SARS-CoV-2 [1]; Severe acute respiratory syndrome coronavirus 2, HeLa-ACE2, Baseline response 0 %, Hill slope -0.679, Maximum measured 102.904 %, Maximum response 100 %, Minimum measured 72.697 %, R squared 0.733",> 20 µM
same,EC90,"SARS-CoV-2 [1]; Severe acute respiratory syndrome coronavirus 2, HeLa-ACE2, Baseline response 0 %, Hill slope -5.712, Maximum measured 120.313 %, Maximum response 100 %, Minimum measured 86.961 %, R squared 0.099",> 20 µM
CC(C)[C@@H](Nc1ncnc2[nH]c(-c3cnn(CC(=O)N(C)C)c3)cc12)c1ccc2c(c1)S(=O)(=O)CCC2,EC50,SARS-CoV-2 [1]; [3],> 20 µM
same,EC90,"SARS-CoV-2 [1]; Severe acute respiratory syndrome coronavirus 2, HeLa-ACE2, Baseline response 0 %, Hill slope -0.117, Maximum measured 98.615 %, Maximum response 100 %, Minimum measured 84.991 %, R squared 0.091",> 20 µM
CC(C)[C@@H](Nc1ncnc2[nH]c(-c3cnn(C)c3C#N)cc12)c1ccc2c(n1)NC(=O)CO2,EC50,SARS-CoV-2 [1]; [3],2.46 µM
same,EC90,"SARS-CoV-2 [1]; Severe acute respiratory syndrome coronavirus 2, HeLa-ACE2, Baseline response 0 %, EC90 CI (lower) 0.524 uM, EC90 CI (upper) 2.251 uM, Hill slope -2.687, Maximum measured 122.922 %, Maximum response 100 %, Minimum measured 8.802 %, R squared 0.907",5.57 µM
Cn1ncc(-c2cc3c(N[C@@H](c4ccc5c(c4)OCCO5)C(C)(C)C)ncnc3[nH]2)c1C#N,EC90,"SARS-CoV-2 [1]; Baseline response 0 %, EC90 CI (lower) 0.293 uM, EC90 CI (upper) 0.492 uM, Hill slope -2.031, Maximum measured 93.387 %, Maximum response 100 %, Minimum measured 1.413 %, R squared 0.981",3.3 µM
same,EC50,SARS-CoV-2 [1]; [3],1.05 µM
same,EC90,"SARS-CoV-2 [1]; Severe acute respiratory syndrome coronavirus 2, HeLa-ACE2, Baseline response 0 %, EC90 CI (lower) 0.423 uM, EC90 CI (upper) 0.632 uM, Hill slope -3.108, Maximum measured 91.316 %, Maximum response 100 %, Minimum measured 1.9 %, R squared 0.978",2.12 µM
same,EC50,SARS-CoV-2 [1]; hela-ace2,1.12 µM
same,EC50,"SARS-CoV-2 [2]; Severe acute respiratory syndrome coronavirus 2, Pneumocyte",7.67 µM
same,EC90,"SARS-CoV-2 [2]; Severe acute respiratory syndrome coronavirus 2, Pneumocyte, EC90 CI (lower) 1.944 uM, EC90 CI (upper) 9.946 uM, Hill slope -3.954, Maximum measured 131.986 %, Minimum measured 2.165 %, R squared 0.772",13.4 µM
CCNC(=O)c1cc2c(N[C@H](c3ccc4c(c3)OCCO4)C(C)C)ncnc2[nH]1,EC50,SARS-CoV-2 [1]; [3],19.7 µM
same,EC90,"SARS-CoV-2 [1]; Severe acute respiratory syndrome coronavirus 2, HeLa-ACE2, Baseline response 0 %, Hill slope -1.464, Maximum measured 109.949 %, Maximum response 100 %, Minimum measured 49.504 %, R squared 0.869",> 20 µM
